This test concerns the target human TrkA receptor (Homo sapiens (Human), UniProt P04629). Briefly: TrkA functional activity, DiscoverX PathHunter assay. The conditions noted are these: U2OS cells expressing human TrkA-PK, Shc1-EA and p75NTR; compound 1 h, then NGF at ~80% of maximal response for 3 h; luminescence. Format: cell-based.

human TrkA receptor, sequence (P04629 33-796): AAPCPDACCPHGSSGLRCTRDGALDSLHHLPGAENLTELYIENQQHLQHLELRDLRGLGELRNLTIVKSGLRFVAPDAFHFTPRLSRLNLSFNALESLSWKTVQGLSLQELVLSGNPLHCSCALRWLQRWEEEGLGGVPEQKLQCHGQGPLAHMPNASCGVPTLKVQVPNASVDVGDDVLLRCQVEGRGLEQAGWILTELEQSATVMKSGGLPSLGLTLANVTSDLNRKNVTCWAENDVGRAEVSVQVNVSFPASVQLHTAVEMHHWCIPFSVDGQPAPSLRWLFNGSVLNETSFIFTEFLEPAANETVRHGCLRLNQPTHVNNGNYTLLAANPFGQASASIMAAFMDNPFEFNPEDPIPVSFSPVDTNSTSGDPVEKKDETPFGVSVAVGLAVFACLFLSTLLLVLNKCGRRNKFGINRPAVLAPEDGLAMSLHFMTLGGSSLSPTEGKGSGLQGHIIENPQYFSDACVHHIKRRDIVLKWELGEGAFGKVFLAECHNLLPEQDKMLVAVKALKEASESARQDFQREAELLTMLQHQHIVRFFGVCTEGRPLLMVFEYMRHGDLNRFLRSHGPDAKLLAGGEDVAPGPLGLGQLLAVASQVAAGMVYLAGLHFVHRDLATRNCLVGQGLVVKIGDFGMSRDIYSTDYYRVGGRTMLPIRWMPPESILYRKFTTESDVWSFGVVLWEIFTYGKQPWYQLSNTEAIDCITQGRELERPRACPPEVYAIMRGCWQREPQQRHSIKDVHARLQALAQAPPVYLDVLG
Description: TrkA functional activity was measured using a DiscoverX PathHunter assay. In this assay, U2OS cells express the human TrkA receptor as a fusion with the weakly complementing fragment of B-galactosidase, which DiscoverX calls “Prolink (PK)”; additionally, Shc1 is fused with a larger fragment, which is called “Enzyme Acceptor (EA)”. Activation of the TrkA receptor, upon NGF addition, results in the kinase domain being phosphorylated, resulting in subsequent recruitment of Shc1-EA protein. That recruitment results in an active B-galactosidase enzyme that is detected by addition of a chemiluminescent substrate. The human p75^NTR protein was also expressed as a co-receptor for NGF.
All reagents were purchased from DiscoverX, except for the receptor agonists (NGF, BDNF, NT3) which were purchased from Peprotech. Cells were expanded and frozen into cryovials, and stored in the vapor phase of liquid nitrogen, and thawed immediately before use. Thawed cells were added to a 384-well plate at 7500 cells/well, and allowed to incubate overnight. Compound at various concentrations was added the following morning and allowed to incubate on cells for 1 h. Then, NGF was added at a concentration sufficient to elicit ˜80% of a maximal response and allowed to incubate for 3 h at ambient temperature. DiscoverX PathHunter detection reagent was then added and the plate was further incubated for 1 h in the dark. The plate was then read via luminescence on the Perkin Elmer Envision.

A word on the IC50: it is the point on the concentration scale where inhibition reaches its midpoint. Regarding `CC(O)c1cnc2c(NC(=O)c3cc(-c4ncccn4)c(C(F)(F)F)cc3Cl)n(-c3ccccc3)nc2c1` (single isomer, unassigned; isomer b) [Compound 36, (R or S)-2-chloro-N-[6-(1-hydroxyethyl)-2-phenyl-2H-pyrazolo[4,3-b]pyridin-3-yl]-5-pyrimidin-2-yl-4-(trifluoromethyl)benzamide, isomer B], the IC50 was determined as 2.4 nM.

In the case of `CC(O)c1ccc2c(NC(=O)c3cc(-c4ncccn4)c(C(F)(F)F)cc3Cl)n(-c3ccccc3)nc2c1` (single isomer, unassigned; isomer b) [Compound 38, (R or S)-2-chloro-N-[6-(1-hydroxyethyl)-2-phenyl-2H-indazol-3-yl]-5-pyrimidin-2-yl-4-(trifluoromethyl)benzamide, isomer B], the half-maximal inhibitory concentration (IC50) was 4.9 nM.

For the compound `O=C(Nc1c2ccc(C(O)C(F)F)cc2nn1-c1ccccc1)c1cc(-c2ncccn2)c(C(F)(F)F)cc1F` (single isomer, unassigned; isomer b) [Compound 57, (R or S)-N-[6-(2,2-difluoro-1-hydroxyethyl)-2-phenyl-2H-indazol-3-yl]-2-fluoro-5-pyrimidin-2-yl-4-(trifluoromethyl)benzamide, isomer B], the IC50 was 13 nM.

As to `O=C(Nc1c2cc(C(O)C(F)F)ccc2nn1-c1ccccc1)c1cc(-c2ncccn2)c(C(F)(F)F)cc1F` (single isomer, unassigned; isomer b) [Compound 59, (R or S)-N[5-(2,2-difluoro-1-hydroxyethyl)-2-phenyl-2H-indazol-3-yl]-2-fluoro-5-pyrimidin-2-yl-4-(trifluoromethyl)benzamide, isomer B], 4.9 nM corresponded to half-maximal inhibition (IC50). This IC50 lies about 2.7-fold lower than the previous one.

The compound `O=C(Nc1c2ncc(C(O)CO)cc2nn1-c1ccccc1)c1cc(-c2ncccn2)c(C(F)(F)F)cc1Cl` (single isomer, unassigned; isomer b) [Compound 65, (R or S)-2-chloro-N-[6-(1,2-dihydroxyethyl)-2-phenyl-2H-pyrazolo[4,3-b]pyridin-3-yl]-5-pyrimidin-2-yl-4-(trifluoromethyl)benzamide, isomer B] showed an IC50 of 29 nM.

Regarding `O=C(Nc1c2ncccc2nn1-c1ccccc1)c1cc(-c2ncccn2)c(C(F)(F)F)cc1F` [Compound 1, 2-Fluoro-N-(2-phenyl-2H-pyrazolo[4,3-b]pyridin-3-yl)-5-pyrimidin-2-yl-4-(trifluoromethyl)benzamide], the IC50 came out at 5.2 nM. This IC50 is about 5.6-fold lower than that of the compound before.

In turn, `O=C(Nc1c2[nH]c(=O)ccc2nn1-c1ccccc1)c1cc(-c2ncccn2)c(C(F)(F)F)cc1F` [Compound 2, 2-Fluoro-N-(5-oxo-2-phenyl-4,5-dihydro-2H-pyrazolo[4,3-b]pyridin-3-yl)-5-(pyrimidin-2-yl)-4-(trifluoromethyl)benzamide] yielded an IC50 of 6 nM.

The compound `O=C(Nc1c2ncccc2nn1-c1cccc(CO)c1)c1cc(-c2ncccn2)c(C(F)(F)F)cc1F` [Compound 3, 2-Fluoro-N-(2-(3-(hydroxymethyl)phenyl)-2H-pyrazolo[4,3-b]pyridin-3-yl)-5-(pyrimidin-2-yl)-4-(trifluoromethyl)benzamide] displayed an IC50 of 122 nM.

Turning to `Cn1ccc(-c2cc(C(=O)Nc3c4cc(C#N)ccc4nn3-c3ccccc3)ccc2C(F)(F)F)n1` [Compound 4, N-(5-cyano-2-phenyl-2H-indazol-3-yl)-3-(1-methyl-1H-pyrazol-3-yl)-4-(trifluoromethyl)benzamide], the midpoint of inhibition, the IC50, lay at 8.8 nM.

As for `Cn1ccc(-c2cc(C(=O)Nc3c4ncccc4nn3-c3ccccc3)c(F)cc2C(F)(F)F)n1` [Compound 5, 2-fluoro-5-(1-methyl-1H-pyrazol-3-yl)-N-(2-phenyl-2H-pyrazolo[4,3-b]pyridin-3-yl)-4-(trifluoromethyl)benzamide], the IC50 was 0.66 nM.

`Cn1ccc(-c2cc(C(=O)Nc3c4cccnc4nn3-c3ccccc3)c(F)cc2C(F)(F)F)n1` [Compound 6, 2-fluoro-5-(1-methyl-1H-pyrazol-3-yl)-N-(2-phenyl-2H-pyrazolo[3,4-b]pyridin-3-yl)-4-(trifluoromethyl)benzamide]: the IC50 amounted to 6.1 nM. This IC50 is about 9.2-fold higher than that of the compound before.

In turn, `Cn1ccc(-c2cc(C(=O)Nc3c4cc(C(F)(F)F)ccc4nn3-c3ccccc3)c(F)cc2C(F)(F)F)n1` [Compound 7, 2-fluoro-5-(1-methyl-1H-pyrazol-3-yl)-N-[2-phenyl-5-(trifluoromethyl)-2H-indazol-3-yl]-4-(trifluoromethyl)benzamide] gave an IC50 of 29 nM.

Compound `COc1ccc2nn(-c3ccccc3)c(NC(=O)c3cc(-c4ncccn4)c(C(F)(F)F)cc3F)c2n1` [Compound 8, 2-fluoro-N-(5-methoxy-2-phenyl-2H-pyrazolo[4,3-b]pyridin-3-yl)-5-pyrimidin-2-yl-4-(trifluoromethyl)benzamide] yielded an IC50 of 18 nM.

Take `CC(=O)NCc1cccc(-n2nc3cccnc3c2NC(=O)c2cc(-c3ncccn3)c(C(F)(F)F)cc2F)c1` [Compound 9, N-(2-{3-[(acetylamino)methyl]phenyl}-2H-pyrazolo[4,3-b]pyridin-3-yl)-2-fluoro-5-pyrimidin-2-yl-4-(trifluoromethyl)benzamide]: the IC50 stood at 744 nM.

Compound `Cn1ccc(-c2cc(C(=O)Nc3c4cc(CO)ccc4nn3-c3ccccc3)ccc2C(F)(F)F)n1` [Compound 10, N-(5-(Hydroxymethyl)-2-phenyl-2H-indazol-3-yl)-3-(1-methyl-1H-pyrazol-3-yl)-4-(trifluoromethyl)benzamide] showed an IC50 of 0.84 nM. This IC50 is about 890-fold lower than that of the compound before.

Take `O=C(Nc1c2cc(CO)ncc2nn1-c1ccccc1)c1cc(-c2ncccn2)c(C(F)(F)F)cc1F` [Compound 11, 2-Fluoro-N-(5-(hydroxymethyl)-2-phenyl-2H-pyrazolo[3,4-c]pyridin-3-yl)-5-(pyrimidin-2-yl)-4-(trifluoromethyl)benzamide]: inhibition was half-maximal at 20 nM (IC50).

The compound `O=C(Nc1c2cc(CO)ccc2nn1-c1ccccc1)c1cc(-c2ncccn2)c(C(F)(F)F)cc1F` [Compound 12, 2-fluoro-N-[5-(hydroxymethyl)-2-phenyl-2H-indazol-3-yl]-5-pyrimidin-2-yl-4-(trifluoromethyl)benzamide] returned an IC50 of 2.6 nM.

With `O=C(Nc1c2ccc(CO)cc2nn1-c1ccccc1)c1cc(-c2ncccn2)c(C(F)(F)F)cc1F` [Compound 13, 2-fluoro-N-[6-(hydroxymethyl)-2-phenyl-2H-indazol-3-yl]-5-pyrimidin-2-yl-4-(trifluoromethyl)benzamide], half-maximal inhibition (IC50) required 3.8 nM.

The compound `O=C(Nc1c2ccc(CO)cc2nn1-c1ccccc1)c1cc(-c2cc[nH]n2)c(C(F)(F)F)cc1F` [Compound 14, 2-fluoro-N-[6-(hydroxymethyl)-2-phenyl-2H-indazol-3-yl]-5-(1H-pyrazol-3-yl)-4-(trifluoromethyl)benzamide] registered an IC50 of 1.2 nM.

In the case of `Cc1cc(-n2nc3ccc(CO)cc3c2NC(=O)c2cc(-c3ncccn3)c(C(F)(F)F)cc2F)n[nH]1` [Compound 15, 2-fluoro-N-[5-(hydroxymethyl)-2-(5-methyl-1H-pyrazol-3-yl)-2H-indazol-3-yl]-5-pyrimidin-2-yl-4-(trifluoromethyl)benzamide], inhibition was half-maximal at 74 nM (IC50).

Compound `O=C(Nc1c2ccc(CO)cc2nn1-c1ccccc1)c1cc(-c2ncccn2)c(C(F)(F)F)cc1Cl` [Compound 16, 2-chloro-N-[6-(hydroxymethyl)-2-phenyl-2H-indazol-3-yl]-5-pyrimidin-2-yl-4-(trifluoromethyl)benzamide] displayed a half-maximal inhibitory concentration (IC50) of 7.9 nM.

In the case of `O=C(Nc1c2nc(CO)ccc2nn1-c1ccccc1)c1cc(-c2ncccn2)c(C(F)(F)F)cc1Cl` [Compound 17, 2-chloro-N-[5-(hydroxymethyl)-2-phenyl-2H-pyrazolo[4,3-b]pyridin-3-yl]-5-pyrimidin-2-yl-4-(trifluoromethyl)benzamide], 18 nM corresponded to half-maximal inhibition (IC50).

Take `Cn1ccc(-c2cc(C(=O)Nc3c4cc(CO)ncc4nn3-c3ccccc3)c(F)cc2C(F)(F)F)n1` [Compound 18, 2-fluoro-N-[5-(hydroxymethyl)-2-phenyl-2H-pyrazolo[3,4-c]pyridin-3-yl)-5-(1-methyl-1H-pyrazol-3-yl)-4-(trifluoromethyl)benzamide]: the IC50 turned out to be 1.9 nM.

For `CC(C)(O)c1cnc2c(NC(=O)c3cc(-c4ncccn4)c(C(F)(F)F)cc3F)n(-c3ccccc3)nc2c1` [Compound 40, 2-Fluoro-N-(6-(2-hydroxypropan-2-yl)-2-phenyl-2H-pyrazolo[4,3-b]pyridin-3-yl)-5-(pyrimidin-2-yl)-4-(trifluoromethyl)benzamide], the IC50 is 3.9 nM.

`Cn1ccc(-c2cc(C(=O)Nc3c4ncc(C(C)(C)O)cc4nn3-c3ccccc3)c(F)cc2C(F)(F)F)n1` [Compound 41, 2-Fluoro-N-(6-(2-hydroxypropan-2-yl)-2-phenyl-2H-pyrazolo[4,3-b]pyridin-3-yl)-5-(1-methyl-1H-pyrazol-3-yl)-4-(trifluoromethyl)benzamide] showed an IC50 of 0.16 nM.

Regarding `Cn1ccc(-c2cc(C(=O)Nc3c4nc(C(C)(C)O)ncc4nn3-c3ccccc3)c(F)cc2C(F)(F)F)n1` [Compound 43, 2-Fluoro-N-(5-(2-hydroxypropan-2-yl)-2-phenyl-2H-pyrazolo[4,3-d]pyrimidin-3-yl)-5-(1-methyl-1H-pyrazol-3-yl)-4-(trifluoromethyl)benzamide], the IC50 was found to be 33 nM. Compared with the last compound, the IC50 is about 210-fold higher.

For `CC(C)(O)c1cnc2nn(-c3ccccc3)c(NC(=O)c3cc(-c4ncccn4)c(C(F)(F)F)cc3F)c2c1` [Compound 45, 2-fluoro-N-[5-(1-hydroxy-1-methylethyl)-2-phenyl-2H-pyrazolo[3,4-b]pyridin-3-yl]-5-pyrimidin-2-yl-4-(trifluoromethyl)benzamide], the midpoint of inhibition, the IC50, lay at 12 nM.

`CC(C)(O)c1ccc2c(NC(=O)c3cc(-c4ncccn4)c(C(F)(F)F)cc3Cl)n(-c3ccccc3)nc2c1` [Compound 46, 2-chloro-N-[6-(1-hydroxy-1-methylethyl)-2-phenyl-2H-indazol-3-yl]-5-pyrimidin-2-yl-4-(trifluoromethyl)benzamide] displayed an IC50 of 1.7 nM.

On to `CC(C)(O)c1cnc2c(NC(=O)c3cc(-c4cc[nH]n4)c(C(F)(F)F)cc3F)n(-c3ccccc3)nc2c1` [Compound 47, 2-fluoro-N-[6-(1-hydroxy-1-methylethyl)-2-phenyl-2H-pyrazolo[4,3-b]pyridin-3-yl]-5-(1H-pyrazol-3-yl)-4-(trifluoromethyl)benzamide], for which the IC50 worked out at 2.6 nM.

The values above are taken from patent publication US9862707B2, “TrkA kinase inhibitors, compositions and methods thereof” (Merck Sharp & Dohme Corp., priority 2014, dated 2018).
